Results: PubChem BioAssay AID256 (DTP/NCI, 2004)
Several values for one entry are separate records, joined by “and”; a condition that tells them apart may be missing. Equal values may be shown once. Inconclusive results and toxic doses are left out.

Tested on: CD2F1 mice, L1210 leukemia ip, survival T/C
Assay: NCI In Vivo Anticancer Drug Screen. Data for tumor model L1210 Leukemia (intraperitoneal) in CD2F1 (CDF1) mice
Settings: higher = longer survival
Outline: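 Compound-dosed mice with transplantable tumor versus matched vehicle controls; endpoint ratio T/C reported.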

With `CC(C)[C@]12O[C@H]1[C@@H]1O[C@]13[C@]1(O[C@H]1C[C@H]1C4=C(C(=O)OC4)[C@@H](O)C[C@@]13C)[C@@H]2O` the T/C (endpoint: mean survival time, dose: 0.8 micrograms/kg/injection, schedule: Q01DX009 (ip), vehicle: saline + alcohol) was 94 % of control, the T/C (endpoint: mean survival time, dose: 1.6 micrograms/kg/injection, schedule: Q01DX009 (ip), vehicle: saline + alcohol) was 92 % of control and the T/C (endpoint: mean survival time, dose: 3.1 micrograms/kg/injection, schedule: Q01DX009 (ip), vehicle: saline + alcohol) was 96 % of control. The T/C (endpoint: mean survival time, dose: 6.3 micrograms/kg/injection, schedule: Q01DX009 (ip), vehicle: saline + alcohol) was 92 % of control, the T/C (endpoint: mean survival time, dose: 12.5 micrograms/kg/injection, schedule: Q01DX009 (ip), vehicle: saline + alcohol) was 89 % of control and the T/C (endpoint: mean survival time, dose: 25.0 micrograms/kg/injection, schedule: Q01DX009 (ip), vehicle: saline + alcohol) was 93 % of control. For the same compound, the T/C (endpoint: mean survival time, dose: 32.0 micrograms/kg/injection, schedule: Q01DX009 (ip), vehicle: saline + alcohol) was 106 % of control, the T/C (endpoint: mean survival time, dose: 50.0 micrograms/kg/injection, schedule: Q01DX009 (ip), vehicle: saline + alcohol) was 107 % of control and the T/C (endpoint: mean survival time, dose: 63.0 micrograms/kg/injection, schedule: Q01DX009 (ip), vehicle: saline + alcohol) was 121 % of control. The T/C (endpoint: mean survival time, dose: 100.0 micrograms/kg/injection, schedule: Q01DX009 (ip), vehicle: saline + alcohol) was 115 % of control, the T/C (endpoint: mean survival time, dose: 200.0 micrograms/kg/injection, schedule: Q01DX009 (ip), vehicle: saline + alcohol) was 156 % of control and the T/C (endpoint: mean survival time, dose: 250.0 micrograms/kg/injection, schedule: Q01DX009 (ip), vehicle: saline + alcohol) was 188 % of control. For the same compound, the T/C (endpoint: mean survival time, dose: 400.0 micrograms/kg/injection, schedule: Q01DX009 (ip), vehicle: saline + alcohol) was 207 % of control, the T/C (endpoint: mean survival time, dose: 500.0 micrograms/kg/injection, schedule: Q01DX009 (ip), vehicle: saline + alcohol) was 93 % of control and the T/C (endpoint: median survival time, dose: 8.0 micrograms/kg/injection, schedule: Q03HX024 (ip), vehicle: saline + alcohol) was 111 % of control. The T/C (endpoint: median survival time, dose: 8.0 micrograms/kg/injection, schedule: Q03HX024 (ip), vehicle: saline) was 110 % of control, the T/C (endpoint: median survival time, dose: 16.0 micrograms/kg/injection, schedule: Q03HX016 (ip), vehicle: saline + alcohol) was 117 % of control and the T/C (endpoint: median survival time, dose: 30.0 micrograms/kg/injection, schedule: Q01DX009 (ip), vehicle: saline) was 109 % of control. The T/C (endpoint: median survival time, dose: 30.0 micrograms/kg/injection, schedule: Q01DX009 (sc), vehicle: saline) was 103 % of control, the T/C (endpoint: median survival time, dose: 31.2 micrograms/kg/injection, schedule: Q01DX009 (ip), vehicle: saline + alcohol) was 101 % of control and the T/C (endpoint: median survival time, dose: 31.2 micrograms/kg/injection, schedule: Q01DX009 (sc), vehicle: saline + alcohol) was 98 % of control. The T/C (endpoint: median survival time, dose: 31.2 micrograms/kg/injection, schedule: Q03HX024 (ip), vehicle: saline + alcohol) was 151 % of control, the T/C (endpoint: median survival time, dose: 60.0 micrograms/kg/injection, schedule: Q01DX009 (sc), vehicle: saline) was 102 % of control and the T/C (endpoint: median survival time, dose: 60.0 micrograms/kg/injection, schedule: Q03HX024 (ip), vehicle: saline) was 191 % of control. The T/C (endpoint: median survival time, dose: 62.0 micrograms/kg/injection, schedule: Q03HX008 (ip), vehicle: saline + alcohol) was 123 % of control, the T/C (endpoint: median survival time, dose: 62.5 micrograms/kg/injection, schedule: Q01DX009 (ip), vehicle: saline + alcohol) was 122 % of control and the T/C (endpoint: median survival time, dose: 62.5 micrograms/kg/injection, schedule: Q01DX009 (sc), vehicle: saline + alcohol) was 104 % of control. For the same compound, the T/C (endpoint: median survival time, dose: 62.5 micrograms/kg/injection, schedule: Q03HX016 (ip), vehicle: saline + alcohol) was 118 % of control, the T/C (endpoint: median survival time, dose: 62.5 micrograms/kg/injection, schedule: Q03HX024 (ip), vehicle: saline + alcohol) was 166 % of control and the T/C (endpoint: median survival time, dose: 62.5 micrograms/kg/injection, schedule: Q04DX003 (ip), vehicle: saline + alcohol) was 97 % of control. The T/C (endpoint: median survival time, dose: 125.0 micrograms/kg/injection, schedule: Q01DX009 (sc), vehicle: saline + alcohol) was 104 % of control, the T/C (endpoint: median survival time, dose: 125.0 micrograms/kg/injection, schedule: Q03HX008 (ip), vehicle: saline + alcohol) was 118 % of control and the T/C (endpoint: median survival time, dose: 125.0 micrograms/kg/injection, schedule: Q03HX016 (ip), vehicle: saline + alcohol) was 111 % of control. The T/C (endpoint: median survival time, dose: 125.0 micrograms/kg/injection, schedule: Q03HX024 (ip), vehicle: saline + alcohol) was 120 % of control, the T/C (endpoint: median survival time, dose: 125.0 micrograms/kg/injection, schedule: Q04DX003 (ip), vehicle: saline + alcohol) was 101 % of control and the T/C (endpoint: median survival time, dose: 125.0 micrograms/kg/injection, schedule: Q08DX002 (ip), vehicle: saline + alcohol) was 98 % of control. The T/C (endpoint: median survival time, dose: 130.0 micrograms/kg/injection, schedule: Q01DX009 (ip), vehicle: saline) was 151 % of control, the T/C (endpoint: median survival time, dose: 130.0 micrograms/kg/injection, schedule: Q01DX009 (sc), vehicle: saline) was 109 % of control and the T/C (endpoint: median survival time, dose: 250.0 micrograms/kg/injection, schedule: Q01DX001 (ip), vehicle: saline + alcohol) was 113 % of control. The T/C (endpoint: median survival time, dose: 250.0 micrograms/kg/injection, schedule: Q01DX001 (sc), vehicle: saline + alcohol) was 104 % of control, the T/C (endpoint: median survival time, dose: 250.0 micrograms/kg/injection, schedule: Q01DX009 (ip), vehicle: saline + alcohol) was 184 % of control and the T/C (endpoint: median survival time, dose: 250.0 micrograms/kg/injection, schedule: Q01DX009 (ip), vehicle: saline) was 203 % of control. For the same compound, the T/C (endpoint: median survival time, dose: 250.0 micrograms/kg/injection, schedule: Q01DX009 (sc), vehicle: saline) was 152 % of control, the T/C (endpoint: median survival time, dose: 250.0 micrograms/kg/injection, schedule: Q04DX003 (ip), vehicle: saline + alcohol) was 113 % of control and the T/C (endpoint: median survival time, dose: 250.0 micrograms/kg/injection, schedule: Q08DX002 (ip), vehicle: saline + alcohol) was 109 % of control. The T/C (endpoint: median survival time, dose: 500.0 micrograms/kg/injection, schedule: Q01DX001 (ip), vehicle: saline + alcohol) was 109 % of control, the T/C (endpoint: median survival time, dose: 500.0 micrograms/kg/injection, schedule: Q01DX001 (sc), vehicle: saline + alcohol) was 107 % of control and the T/C (endpoint: median survival time, dose: 500.0 micrograms/kg/injection, schedule: Q01DX009 (ip), vehicle: saline + alcohol) was 239 % of control. The T/C (endpoint: median survival time, dose: 500.0 micrograms/kg/injection, schedule: Q01DX009 (ip), vehicle: saline) was 255 % of control, the T/C (endpoint: median survival time, dose: 500.0 micrograms/kg/injection, schedule: Q01DX009 (sc), vehicle: saline + alcohol) was 193 % of control and the T/C (endpoint: median survival time, dose: 500.0 micrograms/kg/injection, schedule: Q01DX009 (sc), vehicle: saline) was 87 % of control. For the same compound, the T/C (endpoint: median survival time, dose: 500.0 micrograms/kg/injection, schedule: Q04DX003 (ip), vehicle: saline + alcohol) was 122 % of control, the T/C (endpoint: median survival time, dose: 500.0 micrograms/kg/injection, schedule: Q08DX002 (ip), vehicle: saline + alcohol) was 108 % of control and the T/C (endpoint: median survival time, dose: 1000.0 micrograms/kg/injection, schedule: Q01DX001 (ip), vehicle: saline + alcohol) was 109 % of control. The T/C (endpoint: median survival time, dose: 1000.0 micrograms/kg/injection, schedule: Q04DX003 (ip), vehicle: saline + alcohol) was 115 % of control and the T/C (endpoint: median survival time, dose: 1000.0 micrograms/kg/injection, schedule: Q08DX002 (ip), vehicle: saline + alcohol) was 97 % of control.

In the case of `COc1ccc(CCCC(=O)O)cc1`, the T/C (endpoint: mean survival time, dose: 100.0 mg/kg/injection, schedule: Q01DX001 (ip), vehicle: saline with Tween-80) is reported as 94 % of control, the T/C (endpoint: mean survival time, dose: 200.0 mg/kg/injection, schedule: Q01DX001 (ip), vehicle: saline with Tween-80) is reported as 92 % of control and the T/C (endpoint: mean survival time, dose: 400.0 mg/kg/injection, schedule: Q01DX001 (ip), vehicle: saline with Tween-80) is reported as 94 % of control.

With `O=c1[nH]c2c(ncn2C2OC3COP(=O)(O)OC3C2O)c2nccn12` (stereo not drawn) the T/C (endpoint: mean survival time, dose: 12.5 mg/kg/injection, schedule: Q01DX005 (ip), vehicle: distilled water + Tween-80) was 97 % of control, the T/C (endpoint: mean survival time, dose: 25.0 mg/kg/injection, schedule: Q01DX005 (ip), vehicle: distilled water + Tween-80) was 97 % of control and the T/C (endpoint: mean survival time, dose: 50.0 mg/kg/injection, schedule: Q01DX005 (ip), vehicle: distilled water + Tween-80) was 97 % of control. For the same compound, the T/C (endpoint: mean survival time, dose: 100.0 mg/kg/injection, schedule: Q01DX005 (ip), vehicle: distilled water + Tween-80) was 100 % of control.

In the case of `CC12CCC3C(CC=C4CC(OC(=N)N)CCC43C)C1CCC2=O` (stereo not drawn), the T/C (endpoint: mean survival time, dose: 75.0 mg/kg/injection, schedule: Q01DX001 (ip), vehicle: saline) is reported as 98 % of control and the T/C (endpoint: mean survival time, dose: 150.0 mg/kg/injection, schedule: Q01DX001 (ip), vehicle: saline) is reported as 101 % of control.

For `O=C1CC(c2ccc([N+](=O)[O-])cc2)=Nc2ccccc2N1`, the T/C (endpoint: mean survival time, dose: 100.0 mg/kg/injection, schedule: Q01DX009 (ip), vehicle: saline with Tween-80) was 102 % of control, the T/C (endpoint: mean survival time, dose: 200.0 mg/kg/injection, schedule: Q01DX009 (ip), vehicle: saline with Tween-80) was 101 % of control and the T/C (endpoint: mean survival time, dose: 400.0 mg/kg/injection, schedule: Q01DX009 (ip), vehicle: saline with Tween-80) was 96 % of control.

In the case of `CS(=O)(=O)OC1CC(n2ccc(=O)[nH]c2=O)OC1COC(c1ccccc1)(c1ccccc1)c1ccccc1` (stereo not drawn), the T/C (endpoint: median survival time, dose: 12.5 mg/kg/injection, schedule: Q01DX005 (ip), vehicle: saline with Tween-80) is reported as 98 % of control and 103 % of control, the T/C (endpoint: median survival time, dose: 25.0 mg/kg/injection, schedule: Q01DX005 (ip), vehicle: saline with Tween-80) is reported as 100 % of control and 96 % of control and the T/C (endpoint: median survival time, dose: 50.0 mg/kg/injection, schedule: Q01DX005 (ip), vehicle: saline with Tween-80) is reported as 108 % of control and 94 % of control. For the same compound, the T/C (endpoint: median survival time, dose: 100.0 mg/kg/injection, schedule: Q01DX005 (ip), vehicle: saline with Tween-80) was 100 % of control and 94 % of control and the T/C (endpoint: median survival time, dose: 200.0 mg/kg/injection, schedule: Q01DX005 (ip), vehicle: saline with Tween-80) was 98 % of control and 101 % of control.

`CC1CCCCCC(=O)c2c(O)cc(O)cc2CC(=O)O1` (stereo not drawn) was tested, and the T/C (endpoint: mean survival time, dose: 100.0 mg/kg/injection, schedule: Q01DX001 (ip), vehicle: other) was 95 % of control, the T/C (endpoint: mean survival time, dose: 200.0 mg/kg/injection, schedule: Q01DX001 (ip), vehicle: other) was 118 % of control and the T/C (endpoint: mean survival time, dose: 400.0 mg/kg/injection, schedule: Q01DX001 (ip), vehicle: other) was 100 % of control.

`O.O=[N+]([O-])O.[NH-]C1CCCCC1[NH-].[Pt+2]` (stereo not drawn) was tested, and the T/C (endpoint: mean survival time, dose: 0.32 mg/kg/injection, schedule: Q04DX003 (ip), vehicle: other) was 113 % of control and the T/C (endpoint: mean survival time, dose: 0.63 mg/kg/injection, schedule: Q04DX003 (ip), vehicle: other) was 119 % of control.
